# Measured values: patent publication US20030148404A1, “Peptides and substances, methods and devices using same for diagnosing and treating neurodegenerative disorders” (Ramot University Authority For Applied Research & …, priority 2000, published 2003)
# Non-standard residues stand in square brackets, D forms with d. No end group written: not given here. pS = N[C@@H](COP(=O)(O)O)C(=O)O
# Experiments:
# [1] = tested on: anti-NF—H antibodies; assay: Streptavidin-biotin ELISA: serum IgG binding to biotinylated NF-H peptide (protocol optimisation, pooled AD serum); parameters: species or system human; conditions: serum pooled from 10 AD patients; streptavidin plates blocked or not blocked; FIG. 1
# Procedure: Solutions and Materials: Tris Buffered Saline (TBS): 50 mM Tris-HCl, pH 7.4 (Tris (Sigma, T-1378); HCl (Merck 1.00319.1000)) 200 mM NaCl (Merck, 1.06404.1000). TBST: 0.05% (w/v) Tween-20 (Sigma, P-7949) in TBS. Phosphate Buffered Saline (PBS): 0.1 M phosphate buffer, pH 7.2 (Sodium phosphate, monobasic (Sigma. S-8182) and Sodium phosphate, dibasic (Sigma, S-7907)). 200 mM NaCl (Merck, 1.06404.1000). PBST: 0.05% (w/v) Tween-20 (Sigma, P-7949) in PBS. Dilution/Blocking buffer: 0.5% Gelatin (Difco, 0143-17-9) in TBST. Streptavidin stock solution: 2 mg/ml Streptavidin (Sigma, S4762) in purified water. Aliquoted and kept at −20° C., this solution is stable indefinitely. Multiwell Plates: Nunc Maxisorp (Cat. No. 442404) 96 well C-shaped microplates. Secondary antibody: Goat anti-human IgG Horse radish peroxidase conjugate (Jackson, 109-035-088). Substrate solution: 1 mg/ml OPD (Sigma, P-8412)+0.005% H2O2 (Merck, 1.07210.0250) in […] Sodium Citrate buffer, pH 5 (Merck, 1.00 244.1000).
# A Streptavidin stock solution (2 mg/ml Streptavidin prepared in purified water, aliquoted, and stored at −20° C.) was diluted 1:400 in ddH2O and a 100 μl aliquot was added to each well of a multiwell plate (96 well C-shaped microplates). […]
# OD was measured at 450 nm and 620 nm every minute over a period of 10-15 minutes. […]
# [2] = tested on: anti-NF—H antibodies; assay: ELISA comparison of AD and NC sera with peptides; separation algorithms and grouping of peptides into FACTs; assay type: binding, human; conditions: single peptide
# Procedure: A Streptavidin stock solution (2 mg/ml Streptavidin prepared in purified water, aliquoted, and stored at −20° C.) was diluted 1:400 in ddH2O and a 100 μl aliquot was added to each well of a multiwell plate (96 well C-shaped microplates). The plates were incubated at 37° C. overnight until the liquid was entirely evaporated and stored until use at 4° C. in plastic bags containing a desiccating material. Such coated plates retained their activity for at least few days. The plates were washed 4 times by immersing in TBST. 200 μl of blocking solution were added to each of the wells. The plates were then incubated for 1 hour at room temperature. 100 μl of the biotinylated peptide (1 μg/ml in TBST) were added to each of the wells with the exception of the control wells. The plates were then incubated for 1 hour at room temperature.
# Following incubation, the plates were washed in TBST 4 times as above. A 100 μl aliquot of serum which was diluted in a dilution buffer was added to each well and the plates were incubated for 1 hour at room temperature.
# Following this incubation the wells were washed in TBST 4 times as above. A 100 μl aliquot of a secondary antibody (Goat anti-human IgG Horse radish peroxidase conjugate) which was diluted 1:2000 in dilution buffer was added to each well and the plates were incubated for 1 hour at room temperature.
# The wells were then washed in TBST 4 times as above followed by two washes in TBS (TBST w/o Tween-20).
# A 100 μl aliquot of the substrate solution was added to each well and the plates were incubated at room temperature.
# OD was measured at 450 nm and 620 nm every minute over a period of 10-15 minutes.
# Employing the above optimized parameters, eight AD and eight NC sera were analyzed using peptide 3M (SEQ ID NO:31). The experiment was repeated over a period of four days, employing four different plates each day. Two plates were preblocked with Gelatin, while two were not. In one experiment chloroform treated serum was analyzed on two additional plates. Three AD sera consistently gave rise to high signals in all experiments. One AD serum caused high signals in 10 out of the 13 plates and four AD sera were consistently negative. One NC sera caused high signals in some of the plates in the experiments conducted on all four days. Two additional NC sera gave rise to high signals in some of the plates in the experiments conducted on three of the four days. […] The reproducibility of the experiments was assessed by averaging the rank-order numbers of each sample in every experiment (Table 3). […]
# A series of experiments were performed in which 48 AD and 48 NC were analyzed by the use of 17 different peptides (INO; 2L; 2LR; 3NO; 3L; 3M; 3R; 3LM; 3LR; 4LM; 4MR; 4LMR; 5LM; 6LR; 7MR; 8LMR and 8LMR-V). […]
sequence,measurement,setting,value
A K S P A E A K S(PO3H) P V K E E A K S P-OH (AKSPAEAK[pS]PVKEEAKSP-OH; N-terminus assumed; SMILES CC(C)[C@H](NC(=O)[C@@H]1CCCN1C(=O)[C@H](COP(=O)(O)O)NC(=O)[C@H](CCCCN)NC(=O)[C@H](C)NC(=O)[C@H](CCC(=O)O)NC(=O)[C@H](C)NC(=O)[C@@H]1CCCN1C(=O)[C@H](CO)NC(=O)[C@H](CCCCN)NC(=O)[C@H](C)N)C(=O)N[C@@H](CCCCN)C(=O)N[C@@H](CCC(=O)O)C(=O)N[C@@H](CCC(=O)O)C(=O)N[C@@H](C)C(=O)N[C@@H](CCCCN)C(=O)N[C@@H](CO)C(=O)N1CCC[C@H]1C(=O)O) [3M],saturating concentration of the peptide,[1],0.4 to 0.8 µg/mL
same,sensitivity,[2]; eight AD and eight NC samples,50%
same,specificity,[2]; eight AD and eight NC samples,87%
same,AD cases detected,"[2]; eight AD and eight NC sera, pre-blocked plates",four out of eight
same,false positive signal,"[2]; eight AD and eight NC sera, pre-blocked plates (sample No. 485)",one
